For six molecules, IC50 results are on record in patent publication US12016864B2, “LOX enzyme inhibiting methods and compositions” (ANOVIA BIOSCIENCES, INC., priority 2021, dated 2024).

The assay has as its target T1, Recombinant human LOXL2 (lysyl oxidase like 2) (Homo sapiens, UniProt Q9Y4K0).
T1 construct: purchased R&D systems
T1 sequence (Q9Y4K0 26-774): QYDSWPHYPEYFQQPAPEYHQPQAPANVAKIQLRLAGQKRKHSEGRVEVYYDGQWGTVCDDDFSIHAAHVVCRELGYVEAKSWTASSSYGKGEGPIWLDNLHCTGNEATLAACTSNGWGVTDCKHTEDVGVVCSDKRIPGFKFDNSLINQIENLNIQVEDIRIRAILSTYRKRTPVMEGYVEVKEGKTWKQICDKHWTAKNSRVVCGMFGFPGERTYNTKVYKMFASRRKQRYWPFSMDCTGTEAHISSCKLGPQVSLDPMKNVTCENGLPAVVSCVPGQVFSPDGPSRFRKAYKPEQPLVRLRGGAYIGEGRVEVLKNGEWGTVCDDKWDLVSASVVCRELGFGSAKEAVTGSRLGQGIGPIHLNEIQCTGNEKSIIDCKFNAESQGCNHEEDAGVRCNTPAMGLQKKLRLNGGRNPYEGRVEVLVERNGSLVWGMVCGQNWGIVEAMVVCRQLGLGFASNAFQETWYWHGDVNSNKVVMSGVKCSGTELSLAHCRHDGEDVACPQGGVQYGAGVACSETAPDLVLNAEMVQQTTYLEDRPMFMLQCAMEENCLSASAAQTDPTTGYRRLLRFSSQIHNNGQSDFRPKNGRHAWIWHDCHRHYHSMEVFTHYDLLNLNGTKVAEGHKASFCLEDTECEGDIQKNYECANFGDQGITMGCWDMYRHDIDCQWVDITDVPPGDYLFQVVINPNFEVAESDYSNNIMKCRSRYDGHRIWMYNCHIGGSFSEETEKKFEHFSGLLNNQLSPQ
The assay is described as follows: LOXL2 inhibition assay, fluorometric (cadaverine / HRP / Amplex Red). Type of assay: biochemical. The note with it: recombinant human LOXL2 130 nM; 30 min preincubation at 37° C.; 2.5 mM cadaverine; read-out: Activity Range LOXL2. A digest of the protocol:
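Recombinant human LOXL2 or LOXL3 in 1.2 M urea, 50 mM sodium borate pH 8.0, 10 mM CaCl, preincubated with compound 30 min at 37 °C. Cadaverine substrate added; H2O2 detected by HRP/Amplex Red fluorescence, read kinetically for 60 min at 37 °C. Initial-rate slopes, background-subtracted and normalised to DMSO, fitted to a 4-parameter curve with bottom fixed at 0.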

As for `NCc1ccnc(S(=O)(=O)C[C@H]2C[C@@H](c3ccccc3)CN2S(=O)(=O)N2CCS(=O)(=O)CC2)c1` [Example 196B, 4-(((2R,4S)-2-(((4-(aminomethyl)pyridin-2-yl)sulfonyl)methyl)-4-phenylpyrrolidin-1-yl)sulfonyl)thiomorpholine 1,1-dioxide 2,2,2-trifluoroacetate], the IC50 is no more than 500 nM. Consider `NCc1ccnc(S(=O)(=O)C[C@@H]2C[C@H](c3ccccc3)CN2S(=O)(=O)N2CCS(=O)(=O)CC2)c1` [Example 196A, 4-(((2S,4R)-2-(((4-(aminomethyl)pyridin-2-yl)sulfonyl)methyl)-4-phenylpyrrolidin-1-yl)sulfonyl)thiomorpholine 1,1-dioxide 2,2,2-trifluoroacetate], for which the IC50 was no more than 500 nM. In the case of `NCc1ccnc(S(=O)(=O)C[C@@H]2C[C@H](c3ccccc3)CN2S(=O)(=O)N2CCS(=O)(=O)CC2)c1` (racemic) [Example 196, cis-4-((2-(((4-(Aminomethyl)pyridin-2-yl)sulfonyl)methyl)-4-phenylpyrrolidin-1-yl)sulfonyl)thiomorpholine 1,1-dioxide 2,2,2-trifluoroacetate], the IC50 is no more than 500 nM. Then `NCc1ccnc(S(=O)(=O)C[C@H]2C[C@@H](c3ccccc3)CN2S(=O)(=O)N2CCOCC2)c1` (single isomer, unassigned) [Example 195A], with no more than 500 nM; and `NCc1ccnc(S(=O)(=O)C[C@@H]2C[C@H](c3ccccc3)CN2S(=O)(=O)N2CCOCC2)c1` (racemic) [Example 195, Cis-(2-(((1-(Morpholinosulfonyl)-4-phenylpyrrolidin-2-yl)methyl)sulfonyl)pyridin-4-yl)methanamine 2,2,2-trifluoroacetate], with no more than 500 nM.

For the molecule `NCc1ccnc(S(=O)(=O)C[C@@H]2C[C@H](c3ccccc3)CN2S(=O)(=O)N2CCOCC2)c1` (single isomer, unassigned) [Example 195B], the IC50 was no more than 500 nM.
